In ChEMBL document CHEMBL4616584, “Designing around Structural Alerts in Drug Discovery” (J Med Chem, 2020):
Values belong to the compound of their own block, whether it stands above or below them.

Experiments:
[1] = Half life of the compound at pH 7.4; type: physicochemical
[2] = Half life of the compound in buffer; type: physicochemical
in vitro = conditions: human, platelets
[3] = Covalent protein binding in human liver microsomes assessed per mg protein at 10 uM preincubated for 5 mins followed by UDPGA addition and measured after 60 mins by liquid scintillation counting method; type: ADME, Microsome; conditions: 1 h
[4] = Half life of the compound; type: physicochemical
[5] = Half life in potassium phosphate buffer by liquid chromatography-tandem mass spectrometry; type: physicochemical
[6] = Covalent protein binding in human liver microsomes assessed per mg protein at 50 uM after 60 mins in presence of NADPH by LC-MS/MS method; type: ADME, Microsome; conditions: 1 h

SMILES: NC(=O)OCC(C=O)c1ccccc1 (configuration not stated)
half-life [1]: < 0.5 min

SMILES: Cc1cc(OCCCS(C)(=O)=O)cc(C)c1-c1cccc(COc2ccc3c(c2)OC[C@H]3CC(=O)O[C@H]2O[C@@H](C(=O)O)[C@H](O)[C@H](O)[C@@H]2O)c1
half-life [2]: 30 min

SMILES: COC(=O)[C@H](c1ccccc1Cl)N1CCc2sccc2C1 [CLOPIDOGREL]
fraction unbound (in vitro): 0.98

SMILES: CC(C)Cc1ccc(CC(=O)O)cc1 [IBUFENAC]
PB [3]: 1000 to 8600 pmol
half-life [4]: 66 min

SMILES: CC(C)Cc1ccc(C(C)C(=O)O)cc1 (configuration not stated) [IBUPROFEN]
PB [3]: 1000 to 8600 pmol

The next lines start with the values.

half-life [5]: 1690 min
SMILES: Cc1ccc(Cl)c(Nc2ccccc2C(=O)O)c1Cl [MECLOFENAMIC ACID]

half-life [5]: 990 min
SMILES: Cc1cccc(Nc2ccccc2C(=O)O)c1C [MEFENAMIC ACID]

PB [6]: 3.6 pmol
SMILES: Cc1cnc(NC(=O)C2=C(O)c3ccccc3S(=O)(=O)N2C)s1 [MELOXICAM]

half-life [5]: 16.2 min
SMILES: CCCN(CCC)S(=O)(=O)c1ccc(C(=O)O)cc1 [PROBENECID]

PB [6]: 1.4 pmol
SMILES: CN1C(C(=O)Nc2nccs2)=C(O)c2ccccc2S1(=O)=O [SUDOXICAM]

half-life [2]: 30 min
SMILES: Cc1cc(CC(=O)O)n(C)c1C(=O)c1ccc(Cl)cc1 [ZOMEPIRAC]
